Experiments:
Assay type in all cases: cell-based, Bacillus megaterium
[1] = test system: B. megaterium SR7; assay: SR7 antibiotic sensitivity in LB (OD600 vs unamended control); details: for % Control: (OD600 AB/OD600 Control)*100 in LB, average n = 2, 24 hours, 37° C.; for Sensitivity: LB
Description: To help guide optimization of growth conditions for strain SR7, physiological tests were conducted under aerobic conditions. To determine tolerance for pH, salinity and bicarbonate, high throughput culturing was done in 96 well plates and scored for growth by OD600 using a microplate reader (BioTek Synergy 2; BioTek; Winooski, Vt.). 200 uL LB solutions/well were inoculated in triplicate with 10^4 spores/ml (based on SR7 spore stock filter counts) and incubated on a plate rocker at 37° C. with unamended positive and cell-free negative LB controls. Tests for pH tolerance (pH 2-10) were conducted in LB medium amended with HCl or NaOH. The effect of salinity and bicarbonate on growth was determined by adding NaCl (1-10%) and NaHCO3 (0.1-0.5M), respectively, to LB media. Optimal SR7 growth temperature was tested by inoculating 10^4 spores/ml in 5 ml of LB in triplicate at temperatures of 9-55° C. Cultures and cell-free negative controls were incubated without shaking, with subsamples taken for periodic OD600 measurements. SR7 antibiotic sensitivity was determined by supplementing 5 ml LB with ampicillin (5-50 μg/ml), chloramphenicol (3.5-35 μg/ml), kanamycin (5-50 μg/ml), spectinomycin (10-100 μg/ml), streptomycin (10-100 μg/ml), or tetracycline (1.5-15 μg/ml).

[2] = test system: B. megaterium SR7; assay: Biolog GenIII Microplate growth sensitivity assay; details: for % Control: (OD490 AB/OD490 Control)*100 for Biolog, average n = 2, Biolog does not publish concentrations; for Sensitivity: Biolog, concentration not published; for SR7 growth inhibition in Biolog assays: result in words; for sensitivity: key: S = sensitive; R = resistant
Description: (§1) Plates were incubated at 37° C. on a plate shaker at 200 rpm and assayed for growth using NADH-dependent colorimetric changes measured by OD490 on a microplate reader (BioTek Synergy 2; BioTek; Winooski, Vt.).

[3] = test system: B. megaterium DSM319; assay: Biolog GenIII sole carbon source growth; details: no metals added; Table 10
Description: as §1

[4] = test system: B. megaterium QM B1551; assay: Biolog GenIII sole carbon source growth; details: no metals added; Table 10
Description: as §1

[5] = test system: B. megaterium SR7; assay: Biolog GenIII sole carbon source growth; details: for Growth on Biolog sole carbon source, SR7: no metals added, Table 10; for Growth in carbon source Biolog plate, +Metals: trace metals-amended plate; for Growth in carbon source Biolog plate, +Metals / Growth in carbon source Biolog plate, I / Growth in carbon source Biolog plate, II: Table 11; for Growth in carbon source Biolog plate, I: unamended plate trial I; for Growth in carbon source Biolog plate, II: unamended plate trial II
Description: as §1

| Structure (SMILES) | % Control [2] [%] | Sensitivity [2] | Growth on Biolog sole carbon source, DSM319 [3] | Growth on Biolog sole carbon source, QM B1551 [4] | Growth on Biolog sole carbon source, SR7 [5] | Growth in carbon source Biolog plate, +Metals [5] | Growth in carbon source Biolog plate, I [5] | Growth in carbon source Biolog plate, II [5] | also measured |
| --- | --- | --- | --- | --- | --- | --- | --- | --- | --- |
| CC1(C)S[C@@H]2[C@H](NC(=O)[C@H](N)c3ccccc3)C(=O)N2[C@H]1C(=O)O [Ampicilin] |  |  |  |  |  |  |  |  | % Control ([1]; 50 ug/mL): 8%; Sensitivity ([1]; 50 ug/mL): S |
| [H]/N=C(/N)N[C@H]1[C@H](O)[C@@H](O)[C@H](O[C@@H]2O[C@@H](C)[C@](O)(C=O)[C@H]2O[C@@H]2O[C@@H](CO)[C@H](O)[C@@H](O)[C@@H]2NC)[C@@H](N/C(N)=N\[H])[C@@H]1O [Streptomycin] |  |  |  |  |  |  |  |  | % Control ([1]; 10 ug/mL): 10%; Sensitivity ([1]; 10 ug/mL): S |
| CN[C@H](CC(C)C)C(=O)N[C@H]1C(=O)N[C@@H](CC(N)=O)C(=O)N[C@H]2C(=O)N[C@H]3C(=O)N[C@H](C(=O)N[C@H](C(=O)O)c4cc(O)cc(O)c4-c4cc3ccc4O)[C@H](O)c3ccc(c(Cl)c3)Oc3cc2cc(c3O[C@@H]2O[C@H](CO)[C@@H](O)[C@H](O)[C@H]2O[C@H]2C[C@](C)(N)[C@H](O)[C@H](C)O2)Oc2ccc(cc2Cl)[C@H]1O [Vancomycin] | 10 | S |  |  |  |  |  |  |  |
| NC[C@H]1O[C@H](O[C@H]2[C@H](O)[C@@H](O[C@H]3O[C@H](CO)[C@@H](O)[C@H](N)[C@H]3O)[C@H](N)C[C@@H]2N)[C@H](O)[C@@H](O)[C@@H]1O [Kanamycin] |  |  |  |  |  |  |  |  | % Control ([1]; 5 ug/mL): 9%; Sensitivity ([1]; 5 ug/mL): S |
| CO[C@H]1C[C@H](O[C@H]2[C@H](C)[C@@H](O[C@@H]3O[C@H](C)C[C@H](N(C)C)[C@H]3OC(C)=O)[C@@H](C)C[C@@]3(CO3)C(=O)[C@H](C)[C@@H](OC(C)=O)[C@@H](C)[C@@H](C)OC(=O)[C@@H]2C)O[C@@H](C)[C@@H]1OC(C)=O [Troleandomycin] | 9 | S |  |  |  |  |  |  |  |
| N[C@@H](CC(=O)O)C(=O)O [L-Aspartic Acid] |  |  | +++ | + | + | +++ | + | + |  |
| O=C(N[C@H](CO)[C@H](O)c1ccc([N+](=O)[O-])cc1)C(Cl)Cl [Chloramphenicol] |  |  |  |  |  |  |  |  | % Control ([1]; 35 ug/mL): 9%; Sensitivity ([1]; 35 ug/mL): S |
| N[C@H](CO)C(=O)O [D-Serine, reference compound] | 10 | S |  |  |  | − | − | − | SR7 growth inhibition in Biolog assays [2]: inhibited |
| N[C@@H](Cc1c[nH]cn1)C(=O)O [L-Histidine] |  |  | +++ | + | + | + | + | + |  |
| CCn1cc(C(=O)O)c(=O)c2ccc(C)nc21 [Nalidixic Acid] | 14 | S |  |  |  |  |  |  |  |
| N[C@@H](CCC(=O)O)C(=O)O [L-Glutamic Acid] |  |  | +++ | +++ | + | +++ | + | + |  |
| OC[C@H]1O[C@H](O)[C@H](O)[C@@H](O)[C@@H]1O [α-D-Glucose] |  |  | +++ | + | + | +++ | + | + |  |
| O=C(O)CC(Br)C(=O)O (centres unmarked) [Bromo-Succinic Acid] |  |  | +++ | + | + | + | + | + |  |
| O=C(O)[C@@H](O)[C@@H](O)[C@H](O)[C@@H](O)C(=O)O [D-Saccharic Acid] |  |  | − | +++ | − | − | − | + |  |
| C[C@H]1[C@H](NC(=O)/C(=N\OC(C)(C)C(=O)O)c2csc(N)n2)C(=O)N1S(=O)(=O)O [Aztreonam] | 10 | S |  |  |  |  |  |  |  |
| CCCCC(CC)CCC(CC(C)C)OS(=O)(=O)[O-].[Na+] (centres unmarked) [Niaproof 4] | 9 | S |  |  |  |  |  |  | SR7 growth inhibition in Biolog assays [2]: inhibited |
| CN[C@@H]1[C@H](O)[C@H](NC)[C@H]2O[C@@]3(O)C(=O)C[C@@H](C)O[C@H]3O[C@@H]2[C@H]1O [Spectinomycin] |  |  |  |  |  |  |  |  | % Control ([1]; 100 ug/mL): 47%; Sensitivity ([1]; 100 ug/mL): S/R; SR7 sensitivity to antibiotics ([1]; result in words, summary of Table 9): intermediate sensitivity |
| CN(C)c1ccc(O)c2c1C[C@H]1C[C@H]3[C@H](N(C)C)C(O)=C(C(N)=O)C(=O)[C@@]3(O)C(O)=C1C2=O [Minocycline] |  | S |  |  |  |  |  |  |  |
| O=C(O)C[C@H](O)C(=O)O [L-Malic Acid] |  |  | +++ | +++ | +++ | + |  | +++ |  |
| CC(=O)N[C@H]1C(O)O[C@H](CO)[C@@H](O)[C@@H]1O (stereo partly drawn) [N-Acetyl-D-Glucosamine] |  |  | +++ | + | + |  | + | + |  |
| O=C(O)[C@H](O)[C@@H](O)[C@H](O)[C@H](O)CO [D-Gluconic Acid] |  |  | +++ | + | + | +++ | + | + |  |
| CN(C)[C@@H]1C(O)=C(C(N)=O)C(=O)[C@@]2(O)C(O)=C3C(=O)c4c(O)cccc4[C@@](C)(O)[C@H]3C[C@@H]12 [Tetracycline] |  |  |  |  |  |  |  |  | % Control ([1]; 1.5 ug/mL): 11%; Sensitivity ([1]; 1.5 ug/mL): S |
| C[C@H](O)C(=O)O [L-Lactic Acid] |  |  | +++ | +++ | + | + | + | + |  |
| CC(=O)O[C@H]1C[C@@]2(C)[C@@H](C[C@@H](O)[C@H]3[C@@]4(C)CC[C@@H](O)[C@@H](C)[C@@H]4CC[C@@]32C)/C1=C(\CCC=C(C)C)C(=O)O [Fusidic Acid] | 9 | S |  |  |  |  |  |  |  |
| CO[C@H]1/C=C/O[C@@]2(C)Oc3c(C)c([O-])c4c(O)c(cc(O)c4c3C2=O)NC(=O)/C(C)=C\C=C\[C@H](C)[C@H](O)[C@@H](C)[C@@H](O)[C@@H](C)[C@H](OC(C)=O)[C@@H]1C.[Na+] [Rifamycin SV] | 11 | S |  |  |  |  |  |  |  |
| CC(O)CC(=O)O (racemic) [β-Hydroxy-D,L-Butyric Acid] |  |  | + | +++ | + | + | + | + |  |
| OC[C@@H](O)[C@@H](O)[C@H](O)[C@H](O)CO [D-Mannitol] |  |  | +++ | + | + | + | + | + |  |
| CCC[C@@H]1C[C@@H](C(=O)N[C@@H]([C@H]2O[C@H](SC)[C@H](O)[C@@H](O)[C@H]2O)[C@@H](C)O)N(C)C1 [Lincomycin] | 11 | S |  |  |  |  |  |  |  |
| C[C@H](O)[C@H](O)[C@@H](O)[C@@H](O)C=O [L-Rhamnose] |  |  |  |  |  | − | − | − |  |
